Data reported in the supplement of paper PMC10307832.

What was measured:
Test in all cases: relative viability (nuclei count vs DMSO), 5 days (fraction); higher = more cells survive
[1] = compound: CCN1C(=O)C2=CC(=C(N=C2N(C1=O)C3CC3)N)C(=O)N + CS(=O)(=O)N1CCN(Cc2cc3nc(-c4cccc5[nH]ncc45)nc(N4CCOCC4)c3s2)CC1 [Pictilisib] (partner 1 µM)
Outline: (§1)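 Dosing by pin tool came one day after lung cancer cell lines were seeded in 1536-well plates, using either one drug or a fixed anchor-drug dose plus five library-drug doses (not always all listed) in √10 steps. After 5 days, nuclei were counted on 4× images. Relative viability is treated-well nuclei count divided by vehicle-well nuclei count, and values are medians of duplicate plates.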

[2] = compound: CCN1C(=O)C2=CC(=C(N=C2N(C1=O)C3CC3)N)C(=O)N + N=C(N)NC(=N)NCCc1ccccc1 [Phenformin] (partner 250 µM)
Outline: as §1

[3] = compound: CCN1C(=O)C2=CC(=C(N=C2N(C1=O)C3CC3)N)C(=O)N + Cc1nc(NC(=O)N2CCC[C@H]2C(N)=O)sc1-c1ccnc(C(C)(C)C(F)(F)F)c1 [Alpelisib] (partner 2 µM)
Outline: as §1

[4] = compound: CCN1C(=O)C2=CC(=C(N=C2N(C1=O)C3CC3)N)C(=O)N + O=C(CCCCCCC(=O)Nc1ccccc1)NO [Vorinostat] (partner 1 µM)
Outline: as §1

[5] = compound: CCN1C(=O)C2=CC(=C(N=C2N(C1=O)C3CC3)N)C(=O)N + Cc1cc(Nc2cc(N3CCN(C)CC3)nc(Sc3ccc(NC(=O)C4CC4)cc3)n2)n[nH]1 [Tozasertib] (partner 0.1 µM)
Outline: as §1

NCI-H358 showed a relative viability ([1]; first compound 0.253 µM) of 0.4, a relative viability ([1]; first compound 0.8 µM) of 0.343 and a relative viability ([1]; first compound 2.53 µM) of 0.284. For the same cell line, the relative viability ([1]; first compound 8 µM) was 0.424, the relative viability ([2]; first compound 0.253 µM) was 0.355 and the relative viability ([2]; first compound 0.8 µM) was 0.351. It also gave a relative viability ([2]; first compound 2.53 µM) of 0.388, a relative viability ([2]; first compound 8 µM) of 0.298 and a relative viability ([3]; first compound 0.253 µM) of 0.795. The relative viability ([3]; first compound 0.8 µM) was 0.91, the relative viability ([3]; first compound 2.53 µM) was 0.819 and the relative viability ([3]; first compound 8 µM) was 0.87. It also gave a relative viability ([4]; first compound 0.253 µM) of 0.788, a relative viability ([4]; first compound 0.8 µM) of 0.625 and a relative viability ([4]; first compound 2.53 µM) of 0.628. It also gave a relative viability ([4]; first compound 8 µM) of 0.863, a relative viability ([5]; first compound 0.253 µM) of 0.0962 and a relative viability ([5]; first compound 0.8 µM) of 0.114. For the same cell line, the relative viability ([5]; first compound 2.53 µM) was 0.0945 and the relative viability ([5]; first compound 8 µM) was 0.119.
With NCI-H441 the relative viability ([1]; first compound 0.253 µM) was 0.561, the relative viability ([1]; first compound 0.8 µM) was 0.48 and the relative viability ([1]; first compound 2.53 µM) was 0.462. It also gave a relative viability ([1]; first compound 8 µM) of 0.576, a relative viability ([2]; first compound 0.253 µM) of 0.762 and a relative viability ([2]; first compound 0.8 µM) of 0.85. For the same cell line, the relative viability ([2]; first compound 2.53 µM) was 0.78, the relative viability ([2]; first compound 8 µM) was 0.833 and the relative viability ([3]; first compound 0.253 µM) was 0.957. It also gave a relative viability ([3]; first compound 0.8 µM) of 0.756, a relative viability ([3]; first compound 2.53 µM) of 0.637 and a relative viability ([3]; first compound 8 µM) of 0.598. The relative viability ([4]; first compound 0.253 µM) was 0.83, the relative viability ([4]; first compound 0.8 µM) was 0.851 and the relative viability ([4]; first compound 2.53 µM) was 0.994. It also gave a relative viability ([4]; first compound 8 µM) of 0.906, a relative viability ([5]; first compound 0.253 µM) of 0.619 and a relative viability ([5]; first compound 0.8 µM) of 0.571. The relative viability ([5]; first compound 2.53 µM) was 0.54 and the relative viability ([5]; first compound 8 µM) was 0.458.
NCI-H460 gave a relative viability ([1]; first compound 0.253 µM) of 0.372, a relative viability ([1]; first compound 0.8 µM) of 0.339 and a relative viability ([1]; first compound 2.53 µM) of 0.461. The relative viability ([1]; first compound 8 µM) was 0.341, the relative viability ([2]; first compound 0.253 µM) was 0.519 and the relative viability ([2]; first compound 0.8 µM) was 0.571. It also gave a relative viability ([2]; first compound 2.53 µM) of 0.476, a relative viability ([2]; first compound 8 µM) of 0.499 and a relative viability ([3]; first compound 0.253 µM) of 0.471. For the same cell line, the relative viability ([3]; first compound 0.8 µM) was 0.433, the relative viability ([3]; first compound 2.53 µM) was 0.467 and the relative viability ([3]; first compound 8 µM) was 0.466. It also gave a relative viability ([4]; first compound 0.253 µM) of 0.788, a relative viability ([4]; first compound 0.8 µM) of 0.74 and a relative viability ([4]; first compound 2.53 µM) of 0.625. It also gave a relative viability ([4]; first compound 8 µM) of 0.688, a relative viability ([5]; first compound 0.253 µM) of 0.436 and a relative viability ([5]; first compound 0.8 µM) of 0.455. It also gave a relative viability ([5]; first compound 2.53 µM) of 0.33 and a relative viability ([5]; first compound 8 µM) of 0.112.
NCI-H520 was tested, and the relative viability ([1]; first compound 0.253 µM) was 0.273, the relative viability ([1]; first compound 0.8 µM) was 0.302 and the relative viability ([1]; first compound 2.53 µM) was 0.317. For the same cell line, the relative viability ([1]; first compound 8 µM) was 0.27, the relative viability ([2]; first compound 0.253 µM) was 0.582 and the relative viability ([2]; first compound 0.8 µM) was 0.643. It also gave a relative viability ([2]; first compound 2.53 µM) of 0.59, a relative viability ([2]; first compound 8 µM) of 0.508 and a relative viability ([3]; first compound 0.253 µM) of 0.89. It also gave a relative viability ([3]; first compound 0.8 µM) of 0.765, a relative viability ([3]; first compound 2.53 µM) of 0.962 and a relative viability ([3]; first compound 8 µM) of 0.923. It also gave a relative viability ([4]; first compound 0.253 µM) of 0.719, a relative viability ([4]; first compound 0.8 µM) of 0.655 and a relative viability ([4]; first compound 2.53 µM) of 0.717. It also gave a relative viability ([4]; first compound 8 µM) of 0.817, a relative viability ([5]; first compound 0.253 µM) of 0.426 and a relative viability ([5]; first compound 0.8 µM) of 0.397. For the same cell line, the relative viability ([5]; first compound 2.53 µM) was 0.382 and the relative viability ([5]; first compound 8 µM) was 0.451.
With NCI-H596 the relative viability ([1]; first compound 0.253 µM) was 0.449, the relative viability ([1]; first compound 0.8 µM) was 0.36 and the relative viability ([1]; first compound 2.53 µM) was 0.454. The relative viability ([1]; first compound 8 µM) was 0.403, the relative viability ([2]; first compound 0.253 µM) was 0.707 and the relative viability ([2]; first compound 0.8 µM) was 0.72. It also gave a relative viability ([2]; first compound 2.53 µM) of 0.769, a relative viability ([2]; first compound 8 µM) of 0.628 and a relative viability ([3]; first compound 0.253 µM) of 0.491. For the same cell line, the relative viability ([3]; first compound 0.8 µM) was 0.436, the relative viability ([3]; first compound 2.53 µM) was 0.474 and the relative viability ([3]; first compound 8 µM) was 0.438. It also gave a relative viability ([4]; first compound 0.253 µM) of 0.582, a relative viability ([4]; first compound 0.8 µM) of 0.626 and a relative viability ([4]; first compound 2.53 µM) of 0.614. The relative viability ([4]; first compound 8 µM) was 0.571, the relative viability ([5]; first compound 0.253 µM) was 0.968 and the relative viability ([5]; first compound 0.8 µM) was 0.944. It also gave a relative viability ([5]; first compound 2.53 µM) of 0.69 and a relative viability ([5]; first compound 8 µM) of 1.1.
NCI-H647 was tested, and the relative viability ([1]; first compound 0.253 µM) was 0.424, the relative viability ([1]; first compound 2.53 µM) was 0.432 and the relative viability ([1]; first compound 8 µM) was 0.462. The relative viability ([2]; first compound 0.253 µM) was 0.418, the relative viability ([2]; first compound 0.8 µM) was 0.519 and the relative viability ([2]; first compound 2.53 µM) was 0.428. It also gave a relative viability ([2]; first compound 8 µM) of 0.637, a relative viability ([3]; first compound 0.253 µM) of 1.11 and a relative viability ([3]; first compound 0.8 µM) of 1.17. For the same cell line, the relative viability ([3]; first compound 2.53 µM) was 1.14, the relative viability ([3]; first compound 8 µM) was 1.07 and the relative viability ([4]; first compound 0.253 µM) was 0.448. The relative viability ([4]; first compound 0.8 µM) was 0.477, the relative viability ([4]; first compound 2.53 µM) was 0.557 and the relative viability ([4]; first compound 8 µM) was 0.862. It also gave a relative viability ([5]; first compound 0.253 µM) of 0.33, a relative viability ([5]; first compound 0.8 µM) of 0.304 and a relative viability ([5]; first compound 2.53 µM) of 0.273. The relative viability ([5]; first compound 8 µM) was 0.277.
Cell Line NCI-H650 has a relative viability ([1]; first compound 0.253 µM) of 0.997, a relative viability ([1]; first compound 0.8 µM) of 0.922 and a relative viability ([1]; first compound 2.53 µM) of 0.684. It also gave a relative viability ([1]; first compound 8 µM) of 0.893, a relative viability ([2]; first compound 0.253 µM) of 0.502 and a relative viability ([2]; first compound 0.8 µM) of 0.388. It also gave a relative viability ([2]; first compound 2.53 µM) of 0.448, a relative viability ([2]; first compound 8 µM) of 0.433 and a relative viability ([3]; first compound 0.253 µM) of 1.22. For the same cell line, the relative viability ([3]; first compound 0.8 µM) was 1.06, the relative viability ([3]; first compound 2.53 µM) was 1 and the relative viability ([3]; first compound 8 µM) was 1.02. It also gave a relative viability ([4]; first compound 0.253 µM) of 0.565, a relative viability ([4]; first compound 0.8 µM) of 0.313 and a relative viability ([4]; first compound 2.53 µM) of 0.408. The relative viability ([4]; first compound 8 µM) was 0.421, the relative viability ([5]; first compound 0.253 µM) was 0.704 and the relative viability ([5]; first compound 0.8 µM) was 0.759. It also gave a relative viability ([5]; first compound 2.53 µM) of 0.67 and a relative viability ([5]; first compound 8 µM) of 0.702.
NCI-H661 was tested, and the relative viability ([1]; first compound 0.253 µM) was 0.401, the relative viability ([1]; first compound 0.8 µM) was 0.368 and the relative viability ([1]; first compound 2.53 µM) was 0.45. The relative viability ([1]; first compound 8 µM) was 0.395, the relative viability ([2]; first compound 0.253 µM) was 0.287 and the relative viability ([2]; first compound 0.8 µM) was 0.302. The relative viability ([2]; first compound 2.53 µM) was 0.267, the relative viability ([2]; first compound 8 µM) was 0.278 and the relative viability ([3]; first compound 0.253 µM) was 0.711. It also gave a relative viability ([3]; first compound 0.8 µM) of 0.78, a relative viability ([3]; first compound 2.53 µM) of 0.742 and a relative viability ([3]; first compound 8 µM) of 0.778. The relative viability ([4]; first compound 0.253 µM) was 0.758, the relative viability ([4]; first compound 0.8 µM) was 0.788 and the relative viability ([4]; first compound 2.53 µM) was 0.748. It also gave a relative viability ([4]; first compound 8 µM) of 0.803, a relative viability ([5]; first compound 0.253 µM) of 0.339 and a relative viability ([5]; first compound 0.8 µM) of 0.356. It also gave a relative viability ([5]; first compound 2.53 µM) of 0.354 and a relative viability ([5]; first compound 8 µM) of 0.335.
